Like-named read-outs stand apart in the source and are kept apart here.
Test: Individual predicted steady-state PK parameters (400 mg BID) derived from the final PopPK model
Assay type: in vivo
Conditions: for Ctrough.ss, geometric mean (%CV) / AUC / Cmax / half-life: 400 mg BID steady state; for AUC / Cmax / half-life: human, plasma, oral, 400 mg; for AUC: read-out: AUC0–τ, geometric mean (%CV); for Cmax: read-out: Cmax.ss, geometric mean (%CV); for half-life: read-out: Half-life, geometric mean (%CV) (converted)
Procedure: The final model was used to derive individual estimates of steady-state AUC over one dosing interval (AUC0–τ), Cmax.ss, and minimum maribavir plasma concentration (Ctrough.ss) for a 400 mg BID dosing regimen for all participants in the PopPK analysis. Individual estimates of Cmax.ss, Ctrough.ss, and AUC0–τ were obtained by prediction of the concentration–time profiles (concentrations predicted at 0, 1, 2, 3, 4, 6, 8 and 12 h) after a steady-state dose of 400 mg BID for respective individuals using their individual post hoc parameter values in the absence of strong CYP3A4 inducers or strong CYP3A4 inhibitors, and zero values for residual variability. The PK parameters AUC0–τ (linear up/log down trapezoidal rule), Cmax.ss, and Ctrough.ss were determined by non-compartmental methods.
The mean (percentage coefficient of variation [CV%]), geometric mean (GM) CV%, median, and percentiles for AUC0–τ, Cmax.ss, and Ctrough.ss were obtained overall and by health status (healthy individuals, all transplant recipients with CMV infection, and transplant recipients with refractory CMV infection in the phase 3 SOLSTICE study). For transplant patients with CMV infections, summary statistics were provided by covariates of interest including age (18 to < 65 years and ≥ 65 years; 18 to < 65 years, 65 to < 75 years, and 75 to < 85 years), sex, race, ethnicity, body mass index (BMI; underweight [< 18.5 kg/m^2], normal weight [18.5 to < 25 kg/m^2], overweight [25 to < 30 kg/m^2], obese [≥ 30 kg/m^2]), concurrent PPI, concurrent H2 inhibitors, transplant type, baseline plasma CMV DNA (low and intermediate/high), CMV category, hepatic impairment (none, Child-Pugh Class A, Child-Pugh Class B), presence of CMV mutations at baseline, and baseline use of antilymphocyte antibody. For the PPI and H2 inhibitor analyses, PK parameters were computed only for patients receiving the relevant concomitant medication for all their PK observations and for those who never received the relevant concomitant medication. For healthy individuals, summary statistics were provided by the following covariates of interest: age (≤ 65 years, > 65 years), sex, race, ethnicity, and BMI.

[1] = all transplant patients with CMV infection, n = 485
[2] = refractory CMV infection (SOLSTICE only), n = 253
[3] = transplant patients with CMV, 400 mg BID
[4] = transplant patients with CMV, n = 5 in older group

## CC(C)Nc1nc2cc(Cl)c(Cl)cc2n1[C@H]1O[C@@H](CO)[C@H](O)[C@@H]1O [maribavir]
All participants, n = 667
  Ctrough.ss, geometric mean (%CV): 4.33 (89.7) μg/mL
  AUC: 121 µg·h/mL
  Cmax: 17200 ng/mL
  half-life: 10.9 h
[1]
  Ctrough.ss, geometric mean (%CV): 4.90 (89.7) µg/mL
  AUC: 128 µg·h/mL
  Cmax: 17200 ng/mL
Healthy volunteers, n = 133
  Ctrough.ss, geometric mean (%CV): 2.89 (71.7) μg/mL
  AUC: 101 µg·h/mL
  Cmax: 16400 ng/mL
  half-life: 9.04 h
[2]
  Ctrough.ss, geometric mean (%CV): 5.13 (93.0) µg/mL
  Cmax: 16900 ng/mL
400 mg BID, steady state
  GM AUC0-τ higher in transplant patients with CMV infection than in healthy volunteers: 27%
  GM Cmax.ss higher in transplant patients with CMV infection than in healthy volunteers: 5%
Transplant patients with refractory CMV infection (SOLSTICE only), n = 253
  AUC: 129 µg·h/mL
[3]
  GM AUC0-τ higher in underweight (BMI < 18.5 kg/m^2) than normal-weight patients: 24%
  GM AUC0τ higher in female than male patients: 19%
  GM Cmax.ss higher in female than male patients: 25%
  GM Cmax.ss higher in underweight (BMI < 18.5 kg/m^2) than normal-weight patients: 31%
  Maribavir exposure between patients with no, Child-Pugh class A, or Child-Pugh class B hepatic impairment: similar
  Maribavir exposure with or without PPI: similar
  Maribavir exposure with or without histamine H2 blockers: similar
[4]
  AUC0-τ higher in patients aged 75 to < 85 years vs 18 to < 65 years: 54%
  Cmax.ss higher in patients aged 75 to < 85 years vs 18 to < 65 years: 38%
